Values joined by “and” are separate entries in the source; they are usually repeats but may differ in a detail not shown here. Equal entries are not always repeated. Inconclusive results and toxic doses are left out.
Test system: BDF1 mice, B16 melanoma ip, median survival T/C
Assay: NCI In Vivo Anticancer Drug Screen. Data for tumor model B16 Melanoma (intraperitoneal) in B6D2F1 (BDF1) mice
Conditions: endpoint: median survival time, higher = longer survival
Method in brief: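 Tumor-bearing mice received test compound or vehicle. Survival or tumor size was then measured in both groups. The treated-group figure was divided by the control-group figure.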

[1] = dose: 100.0 mg/kg/injection, schedule: Q01DX009 (ip), vehicle: Klucel (hydroxypropylcellulose) (HPC)
[2] = dose: 200.0 mg/kg/injection, schedule: Q01DX009 (ip), vehicle: Klucel (hydroxypropylcellulose) (HPC)
[3] = dose: 400.0 mg/kg/injection, schedule: Q01DX009 (ip), vehicle: Klucel (hydroxypropylcellulose) (HPC)
[4] = dose: 50.0 mg/kg/injection, schedule: Q01DX009 (ip), vehicle: saline with Tween-80
[5] = dose: 100.0 mg/kg/injection, schedule: Q01DX009 (ip), vehicle: saline with Tween-80
[6] = dose: 200.0 mg/kg/injection, schedule: Q01DX009 (ip), vehicle: saline with Tween-80
[7] = dose: 6.25 mg/kg/injection, schedule: Q01DX009 (ip), vehicle: saline with Tween-80
[8] = dose: 12.5 mg/kg/injection, schedule: Q01DX009 (ip), vehicle: saline with Tween-80
[9] = dose: 25.0 mg/kg/injection, schedule: Q01DX009 (ip), vehicle: Klucel (hydroxypropylcellulose) (HPC)
[10] = dose: 50.0 mg/kg/injection, schedule: Q01DX009 (ip), vehicle: Klucel (hydroxypropylcellulose) (HPC)
[11] = dose: 400.0 mg/kg/injection, schedule: Q01DX009 (ip), vehicle: saline with Tween-80
[12] = dose: 3.13 mg/kg/injection, schedule: Q01DX009 (ip), vehicle: saline with Tween-80
[13] = dose: 12.5 mg/kg/injection, schedule: Q01DX009 (ip), vehicle: Klucel (hydroxypropylcellulose) (HPC)
[14] = dose: 6.25 mg/kg/injection, schedule: Q01DX009 (ip), vehicle: Klucel (hydroxypropylcellulose) (HPC)

In the case of `COC(=O)C(C(=O)OC)C(Br)(OC(C)=O)OC(C)=O`, the T/C (dose: 50.0 mg/kg/injection, schedule: Q04DX003 (ip), vehicle: saline with Tween-80) is reported as 105 % of control, the T/C (dose: 100.0 mg/kg/injection, schedule: Q04DX003 (ip), vehicle: saline with Tween-80) is reported as 95 % of control and the T/C (dose: 200.0 mg/kg/injection, schedule: Q04DX003 (ip), vehicle: saline with Tween-80) is reported as 99 % of control. For the same compound, the T/C (dose: 400.0 mg/kg/injection, schedule: Q04DX003 (ip), vehicle: saline with Tween-80) was 103 % of control.

With `COc1ccc(C2NC(=O)c3ccccc3N2)c(OC)c1OC` (stereo unspecified) the T/C [1] was 103 % of control, the T/C [2] was 112 % of control and the T/C [3] was 109 % of control.

With `CN(C)CCCCNc1ccc(NCCCCN(C)C)c2c1C(=O)c1c(O)ccc(O)c1C2=O` the T/C (dose: 6.25 mg/kg/injection, schedule: Q01DX009 (ip), vehicle: saline) was 95 % of control, the T/C (dose: 12.5 mg/kg/injection, schedule: Q01DX009 (ip), vehicle: saline) was 93 % of control and the T/C (dose: 25.0 mg/kg/injection, schedule: Q01DX009 (ip), vehicle: saline) was 90 % of control and 110 % of control.

In the case of `O=[N+]([O-])c1cc(Cl)c(Cl)cc1NS(=O)(=O)c1ccccc1`, the T/C (dose: 150.0 mg/kg/injection, schedule: Q01DX009 (ip), vehicle: saline with Tween-80) is reported as 100 % of control and the T/C (dose: 300.0 mg/kg/injection, schedule: Q01DX009 (ip), vehicle: saline with Tween-80) is reported as 90 % of control.

`COC12[C@@H]3N[C@@H]3CN1C1=C(C(=O)C(NCCSSCCNC3=C(C)C(=O)C4=C(C3=O)C(COC(N)=O)[C@]3(OC)C5N[C@@H]5CN43)=C(C)C1=O)[C@@H]2COC(N)=O` (stereo partly specified) was tested, and the T/C (dose: 0.2 mg/kg/injection, schedule: Q04DX003 (ip), vehicle: other) was 168 % of control, the T/C (dose: 0.4 mg/kg/injection, schedule: Q04DX003 (ip), vehicle: other) was 241 % of control and the T/C (dose: 0.8 mg/kg/injection, schedule: Q04DX003 (ip), vehicle: other) was 295 % of control. The T/C (dose: 1.5 mg/kg/injection, schedule: Q04DX003 (ip), vehicle: saline with Tween-80) was 184 % of control, the T/C (dose: 1.6 mg/kg/injection, schedule: Q04DX003 (ip), vehicle: other) was 295 % of control and the T/C (dose: 3.0 mg/kg/injection, schedule: Q04DX003 (ip), vehicle: saline with Tween-80) was 197 % of control. The T/C (dose: 3.2 mg/kg/injection, schedule: Q04DX003 (ip), vehicle: other) was 295 % of control, the T/C (dose: 6.0 mg/kg/injection, schedule: Q04DX003 (ip), vehicle: saline with Tween-80) was 288 % of control and the T/C (dose: 6.4 mg/kg/injection, schedule: Q04DX003 (ip), vehicle: other) was 295 % of control. The T/C (dose: 12.0 mg/kg/injection, schedule: Q04DX003 (ip), vehicle: saline with Tween-80) was 288 % of control.

For `CCOC(=O)C(C)(C)Oc1ccc(Cl)cc1`, the T/C [4] was 97 % of control and 113 % of control, the T/C [5] was 88 % of control and 113 % of control and the T/C [6] was 102 % of control.

With `CCCCCCCCCCCCCCCCCC(=O)[O][Hg][c]1ccccc1` the T/C [7] was 97 % of control and the T/C [8] was 105 % of control.

In the case of `COc1ccc(NC(=O)Nc2ccc(C)cc2C)cc1`, the T/C [9] is reported as 106 % of control, the T/C [10] is reported as 101 % of control and the T/C [1] is reported as 106 % of control. For the same compound, the T/C [2] was 93 % of control.

With `CCOC(=O)C(C(=O)OCC)c1cc(NC(=O)c2ccccc2)ccc1NC(=O)c1ccccc1` the T/C [5] was 95 % of control, the T/C [6] was 91 % of control and the T/C [11] was 89 % of control.

With `Cc1nn(-c2ccccc2)c(N)c1C#N` the T/C [9] was 100 % of control, the T/C [10] was 93 % of control and the T/C [1] was 103 % of control.

In the case of `c1ccc(CSSCc2ccccc2)cc1`, the T/C [1] is reported as 113 % of control, the T/C [2] is reported as 114 % of control and the T/C [3] is reported as 108 % of control.

For `CC1(C)N=C(N)N=C(N)N1c1cccc(CCCCOc2ccccc2)c1`, the T/C [12] was 95 % of control, the T/C (dose: 3.13 mg/kg/injection, schedule: Q04DX003 (ip), vehicle: saline with Tween-80) was 109 % of control and the T/C [7] was 102 % of control. For the same compound, the T/C (dose: 6.25 mg/kg/injection, schedule: Q04DX003 (ip), vehicle: saline with Tween-80) was 109 % of control, the T/C [8] was 102 % of control and the T/C (dose: 12.5 mg/kg/injection, schedule: Q04DX003 (ip), vehicle: saline with Tween-80) was 107 % of control.

In the case of `C[C@H](CN1CC(=O)NC(=O)C1)N1CC(=O)NC(=O)C1`, the T/C (dose: 8.0 mg/kg/injection, schedule: Q01DX009 (ip), vehicle: saline) is reported as 108 % of control, the T/C (dose: 16.0 mg/kg/injection, schedule: Q01DX009 (ip), vehicle: saline) is reported as 120 % of control and the T/C (dose: 16.0 mg/kg/injection, schedule: Q01DX009 (ip), vehicle: water) is reported as 107 % of control. The T/C (dose: 25.0 mg/kg/injection, schedule: Q04DX003 (ip), vehicle: water) was 111 % of control, the T/C (dose: 32.0 mg/kg/injection, schedule: Q01DX009 (ip), vehicle: water) was 111 % of control and the T/C (dose: 50.0 mg/kg/injection, schedule: Q04DX003 (ip), vehicle: water) was 94 % of control. For the same compound, the T/C (dose: 100.0 mg/kg/injection, schedule: Q04DX003 (ip), vehicle: water) was 106 % of control, the T/C (dose: 128.0 mg/kg/injection, schedule: Q01DX009 (ip), vehicle: water) was 101 % of control and the T/C (dose: 200.0 mg/kg/injection, schedule: Q04DX003 (ip), vehicle: water) was 107 % of control.

For `Cn1c(O)c(/C=C2\C=Nc3ccccc32)n(C)c1=N`, the T/C [13] was 96 % of control, the T/C [9] was 100 % of control and the T/C [10] was 101 % of control. For the same compound, the T/C [1] was 97 % of control.

For `CC(C)N1CSC(=S)N(Cc2ccccc2)C1`, the T/C [1] was 96 % of control and the T/C [2] was 105 % of control.

`Nc1cccc2c1nc(NCCO)c1ccccc12` was tested, and the T/C [4] was 94 % of control, the T/C [5] was 102 % of control and the T/C [6] was 94 % of control. The T/C [11] was 102 % of control.

In the case of `O=c1cc(O)c1=O`, the T/C (dose: 0.78 mg/kg/injection, schedule: Q01DX009 (ip), vehicle: saline with Tween-80) is reported as 106 % of control, the T/C (dose: 1.56 mg/kg/injection, schedule: Q01DX009 (ip), vehicle: saline with Tween-80) is reported as 104 % of control and the T/C [12] is reported as 110 % of control. The T/C [7] was 109 % of control and the T/C [8] was 93 % of control.

With `O=C(Cl)C1(Br)CC2c3ccccc3C1([N+](=O)[O-])c1ccccc12` (stereo unspecified) the T/C [13] was 100 % of control, the T/C [9] was 97 % of control and the T/C [10] was 97 % of control. The T/C [1] was 91 % of control and the T/C [2] was 88 % of control.

With `CC(C)=CCC(OC(=O)C=C(C)C)C1=CC(=O)c2c(O)ccc(O)c2C1=O` (stereo unspecified) the T/C (dose: 0.25 mg/kg/injection, schedule: Q01DX009 (ip), vehicle: Klucel (hydroxypropylcellulose) (HPC)) was 99 % of control and the T/C (dose: 0.5 mg/kg/injection, schedule: Q01DX009 (ip), vehicle: Klucel (hydroxypropylcellulose) (HPC)) was 92 % of control.

`COC(=O)[C@H]1[C@H]2C[C@@H]3c4[nH]c5cc(OC)ccc5c4CCN3C[C@H]2C[C@@H](OC(=O)c2cccc(N(C)C)c2)[C@@H]1OC` was tested, and the T/C (dose: 0.39 mg/kg/injection, schedule: Q01DX009 (ip), vehicle: Klucel (hydroxypropylcellulose) (HPC)) was 93 % of control, the T/C (dose: 0.78 mg/kg/injection, schedule: Q01DX009 (ip), vehicle: Klucel (hydroxypropylcellulose) (HPC)) was 91 % of control and 94 % of control and the T/C (dose: 1.56 mg/kg/injection, schedule: Q01DX009 (ip), vehicle: Klucel (hydroxypropylcellulose) (HPC)) was 97 % of control and 116 % of control. The T/C (dose: 3.12 mg/kg/injection, schedule: Q01DX009 (ip), vehicle: Klucel (hydroxypropylcellulose) (HPC)) was 94 % of control.

For `CC1=NN(c2cccc(Cl)c2)C(=O)C1`, the T/C [4] was 108 % of control, the T/C [5] was 109 % of control and the T/C [6] was 101 % of control.

For `O=C(O)c1ccc(C(Cl)(Cl)Cl)cc1`, the T/C (dose: 25.0 mg/kg/injection, schedule: Q01DX009 (ip), vehicle: saline with Tween-80) was 105 % of control, the T/C [4] was 103 % of control and the T/C [5] was 98 % of control.

For `CC(=O)NC(Cc1cc(I)c(O)c(I)c1)C(=O)O` (stereo unspecified), the T/C [14] was 103 % of control, the T/C [13] was 108 % of control and the T/C [9] was 96 % of control and 101 % of control. The T/C [10] was 95 % of control, the T/C [1] was 98 % of control and the T/C [2] was 93 % of control.

`CCCN(C(=O)CCl)c1ccccc1` was tested, and the T/C (dose: 3.13 mg/kg/injection, schedule: Q01DX009 (ip), vehicle: Klucel (hydroxypropylcellulose) (HPC)) was 94 % of control, the T/C [14] was 91 % of control and the T/C [13] was 92 % of control.

— PubChem BioAssay AID192 (DTP/NCI, 2004)
